Data published in ChEMBL document CHEMBL3585306, “Anti-HIV diarylpyrimidine-quinolone hybrids and their mode of action” (Bioorg Med Chem, 2015).
The source made the active and inactive calls. The calls are words filed in the database; no cut-off is given here.

How the values were obtained:
[1] = Cytotoxicity against mock-infected human MT4 cells after 5 days by MTT assay; format: cell-based
[2] = test system: Human immunodeficiency virus 1; assay: Antiviral activity against HIV1 harboring K103N/Y181C double mutant infected in human MT4 cells assessed as protection of cells from virus-induced cytopathic after 5 days by MTT assay; format: functional, organism-based; conditions: Human immunodeficiency virus 1, MT4, 120 h
[3] = test system: Human immunodeficiency virus 1; assay: Antiviral activity against wild-type HIV1 3B infected in human MT4 cells assessed as protection of cells from virus-induced cytopathic after 5 days by MTT assay; format: functional, organism-based; conditions: Human immunodeficiency virus 1, 3B, MT4, 120 h
[4] = Selectivity index, ratio of CC50 for mock-infected human MT4 cells to EC50 for HIV1 3B infected in human MT4 cells; format: toxicity, cell-based; conditions: mock-infected (CC50) and HIV1 3B infected (EC50)
[5] = molecular target: Human immunodeficiency virus type 1 reverse transcriptase (Human immunodeficiency virus 1, UniProt Q72547); assay: Inhibition of wild-type HIV1 Reverse transcriptase p66/p51 assessed as relative fluorescence signal after 40 mins
[6] = molecular target: Human immunodeficiency virus type 1 reverse transcriptase (Human immunodeficiency virus 1) (UniProt Q72547); assay: Inhibition of wild-type HIV1 Reverse transcriptase p66/p51 assessed as fluorescence signal by time-of-addition assay
[7] = molecular target: Human immunodeficiency virus type 1 integrase (Human immunodeficiency virus 1, UniProt Q7ZJM1); assay: Inhibition of HIV1 integrase
Sequence of Human immunodeficiency virus type 1 integrase (Q7ZJM1 whole entry): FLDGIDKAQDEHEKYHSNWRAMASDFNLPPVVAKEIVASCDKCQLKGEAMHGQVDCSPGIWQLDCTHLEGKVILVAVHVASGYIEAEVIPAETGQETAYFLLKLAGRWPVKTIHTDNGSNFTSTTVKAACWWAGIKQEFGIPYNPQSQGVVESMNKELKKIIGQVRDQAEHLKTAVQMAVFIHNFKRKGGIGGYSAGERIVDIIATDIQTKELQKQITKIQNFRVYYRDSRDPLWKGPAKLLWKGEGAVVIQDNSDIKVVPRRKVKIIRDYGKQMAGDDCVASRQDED

Structure (SMILES)	CC50 at 120 h [1] [µM]	EC50 [2] [µM]	EC50 [3] [µM]	selectivity ratio [4]	IC50 [5] [µM]	inhibition [6]	IC50 [7] [µM]
Cc1cn([C@H]2C[C@H](N=[N+]=[N-])[C@@H](CO)O2)c(=O)[nH]c1=O [ZIDOVUDINE]	> 94	0.0052	0.0056	16800	–	–	–
CC(C)n1cc(C(=O)O)c(=O)c2ccc(Oc3ccnc(Nc4ccc(C#N)cc4)n3)cc21	> 283	> 283	> 283	1	–	–	–
CCCn1cc(C(=O)O)c(=O)c2ccc(Oc3ccnc(Nc4ccc(C#N)cc4)n3)cc21	245	> 245	≥ 0.43	≤ 569	9.12	–	–
CCCCn1cc(C(=O)O)c(=O)c2ccc(Oc3ccnc(Nc4ccc(C#N)cc4)n3)cc21	≥ 199	> 199	0.33	≥ 604	3.49	Active	32.5
CCn1cc(C(=O)O)c(=O)c2ccc(Nc3ccnc(Nc4ccc(C#N)cc4)n3)cc21	123	> 123	> 123	< 1	7.07	–	–
CC(C)n1cc(C(=O)O)c(=O)c2ccc(Nc3ccnc(Nc4ccc(C#N)cc4)n3)cc21	10.9	> 10.9	> 10.9	< 1	–	–	–
Cc1cc(C#N)cc(C)c1Oc1nc(Nc2ccc(C#N)cc2)nc(N)c1Br [ETRAVIRINE]	14.2	0.014	0.0019	–	–	–	–
CC(C)Cn1cc(C(=O)O)c(=O)c2ccc(Oc3ccnc(Nc4ccc(C#N)cc4)n3)cc21	> 274	> 274	1.16	> 237	14	Active	–
CCCCn1cc(C(=O)O)c(=O)c2ccc(Nc3ccnc(Nc4ccc(C#N)cc4)n3)cc21	13.6	> 13.6	> 13.6	< 1	–	–	–
N#Cc1ccc(Nc2nccc(Oc3ccc4c(=O)c(C(=O)O)cn(C5CCCC5)c4c3)n2)cc1	4.96	> 4.96	0.98	5	6.08	–	–
CCC(C)n1cc(C(=O)O)c(=O)c2ccc(Oc3ccnc(Nc4ccc(C#N)cc4)n3)cc21 (stereo unspecified)	> 274	> 274	> 274	1	–	–	–
Cc1ccnc2c1NC(=O)c1cccnc1N2C1CC1 [NEVIRAPINE]	> 15	≥ 11	0.244	–	–	–	–
N#Cc1ccc(Nc2nccc(Oc3ccc4c(=O)c(C(=O)O)cn(C5CCCCC5)c4c3)n2)cc1	3.22	> 3.22	> 3.22	< 1	–	–	–
CCCn1cc(C(=O)O)c(=O)c2ccc(Nc3ccnc(Nc4ccc(C#N)cc4)n3)cc21	189	> 189	> 189	< 1	–	–	–
N#Cc1ccc(Nc2nccc(Nc3ccc4c(=O)c(C(=O)O)cn(C5CCCCC5)c4c3)n2)cc1	2.18	> 2.18	> 2.18	< 1	–	–	–
N#Cc1ccc(Nc2nccc(Oc3ccc4c(=O)c(C(=O)O)cn(C5CC5)c4c3)n2)cc1	≥ 221	> 221	> 221	≤ 1	–	–	–
COc1cc2c(cc1Cc1cccc(Cl)c1F)c(=O)c(C(=O)O)cn2[C@H](CO)C(C)C	4.6	0.0022	0.0031	–	–	–	–
O=C1Nc2ccc(Cl)cc2[C@@](C#CC2CC2)(C(F)(F)F)O1 [EFAVIRENZ]	> 6.5	0.14	–	–	–	–	–
CCn1cc(C(=O)O)c(=O)c2ccc(Oc3ccnc(Nc4ccc(C#N)cc4)n3)cc21	246	> 246	0.28	880	7.15	Active	–
